Measurements published in PMC4305367 (Cancer Chemotherapy and Pharmacology, 2014).
Entries after “also recorded” stand apart in the source; their conditions may differ.

How the values were obtained:
[1] = test system: dehydroepiandrosterone sulfate (DHEA-S); assay: Pharmacodynamics: serum DHEA-S; assay type: in vivo, human; conditions: for Serum DHEA-S: mean (SD), LLOQ 2.0
Procedure: (§1) Endocrine parameters such as serum testosterone and dehydroepiandrosterone sulfate (DHEA-S) were measured for PD analysis. The blood sample were collected on Days 1, 8, 15, and 22 of Cycle 1 and then on Day 1 of each subsequent 28-day cycle. Assay procedure for testosterone was improved during the study, and the lower limit of quantification (LLOQ) for testosterone changed from 0.05 to 0.03 ng/mL.

serum androgen levels = conditions: monkeys; cited from earlier work
[2] = male, human, in vivo, 24 h
[3] = test system: prostate-specific antigen (PSA); assay: Serum PSA levels and PSA response (PCWG2 criteria); assay type: in vivo, human; conditions: during the study; 15 patients
Procedure: (§2) The efficacy endpoints were serum PSA levels, PSA response rates based on the Prostate Cancer Clinical Trials Working Group (PCWG) 2 criteria, and objective disease response rates based on the General Rule for Clinical and Pathological Studies on Prostate Cancer and modified RECIST version 1.0. PSA levels were measured on Days 1 and 15 in Cycle 1, on Day 1 of Cycle 2 and each subsequent cycle. Tumor assessments were performed on Day 29, 85, and every 12-week cycle for subsequent cycles.

clinical = conditions: human, in vivo; for AUC(0-t): AUC0–8h; for Cmax: C max
serum testosterone = assay: Pharmacodynamics: serum testosterone; assay type: in vivo, human; conditions: for Serum testosterone: mean (SD), LLOQ 0.05 or 0.03
Procedure: as §1

[4] = test system: castration-resistant prostate cancer; assay: Objective disease response (General Rule for Prostate Cancer; modified RECIST 1.0); assay type: in vivo, human
Procedure: as §2

[5] = test system: Japanese patients with castration-resistant prostate cancer; assay: Phase 1 safety assessment: adverse events (NCI-CTCAE v3.0), DLT, laboratory profiles, ECG; assay type: in vivo, human
From the text: The propriety of transitions to subsequent dose cohort was judged on the basis of the number of patients with dose-limiting toxicities (DLTs) during Cycle 1 (28 days). […] Patients could continue study treatment until criteria for treatment discontinuation were met. The use of aldosterone antagonists (e.g., eplerenone) was allowed for patients with clinical symptoms of mineralocorticoid excess such as hypertension, hypokalemia, and edema.
Safety assessments included the evaluation of adverse events (AEs), laboratory profiles, physical examination, and vital signs throughout the study. AEs were graded using National Cancer Institute Common Terminology Criteria for Adverse Events (NCI-CTCAE) v3.0. Analysis of serum amylase and lipase was added to the clinical laboratory tests before enrollment of patients into the 400-mg BID plus prednisolone cohort because pancreatitis was reported during the study. A safety follow-up was performed for 28 days after the final dose of the study treatment. During Cycle 1 (28 days), DLT was also evaluated. DLTs were defined as any drug-related AE of ≥ Grade 3 and pre-specified cardiac-related AEs of lower grade. Hypertension, hypokalemia, and edema attributed to increased ACTH secretion maintained at Grade 2 or lower through the use of eplerenone were not considered DLTs.

[6] = General Rule for Clinical and Pathological Studies on Prostate Cancer, 15 patients

In the case of `CNC(=O)c1ccc2cc([C@@]3(O)CCn4cncc43)ccc2c1` [Orteronel], the “Serum DHEA-S” value ([1]; Cycle 1 Day 8, 200 mg BID (N = 3), screening 114.7 (8.96)) is reported as 25.0 (7.21) μg/dL, the “Serum DHEA-S” value ([1]; Cycle 1 Day 8, 300 mg BID (N = 3), screening 146.7 (79.83)) is reported as 23.3 (14.57) μg/dL and the “Serum DHEA-S” value ([1]; Cycle 1 Day 8, 300 mg BID + prednisolone (N = 3), screening 136.0 (52.68)) is reported as 6.3 (4.16) μg/dL. For the same compound, the “Serum DHEA-S” value ([1]; Cycle 1 Day 8, 400 mg BID (N = 3), screening 60.3 (8.50)) was 9.3 (0.58) μg/dL, the “Serum DHEA-S” value ([1]; Cycle 1 Day 8, 400 mg BID + prednisolone (N = 3), screening 40.3 (7.57)) was 2.3 (0.58) μg/dL and the “Serum DHEA-S” value ([1]; Cycle 2 Day 1, 200 mg BID (N = 3), screening 114.7 (8.96)) was 30.0 (9.64) μg/dL. The “Serum DHEA-S” value ([1]; Cycle 2 Day 1, 300 mg BID (N = 3), screening 146.7 (79.83)) was 24.3 (11.93) μg/dL, the “Serum DHEA-S” value ([1]; Cycle 2 Day 1, 300 mg BID + prednisolone (N = 3), screening 136.0 (52.68)) was 2.3 (0.58) μg/dL and the “Serum DHEA-S” value ([1]; Cycle 2 Day 1, 400 mg BID (N = 3), screening 60.3 (8.50)) was 19.3 (16.29) μg/dL. For the same compound, the “Serum DHEA-S” value ([1]; Cycle 2 Day 1, 400 mg BID + prednisolone (N = 3), screening 40.3 (7.57)) was 2.0 (0.00) μg/dL, the “Suppression of serum DHEA-S” value ([1]; Day 8) was “suppressed” and the “Effect on serum androgen levels in vivo” value (serum androgen levels) was “reduced serum androgen levels”. For the same compound, the “Fractional urinary excretion rate” value [2] was 36 to 47 % of the dose, the “Overall median maximum PSA reduction” value [3] was 88.48% and the AUC(0-t) (clinical; 300 mg) was 14500 ng·h/mL. The AUC(0-t) (clinical; 400 mg) was 28600 ng·h/mL, the “Time to C max (T max), range over cohorts” value (clinical; male) was 1 to 3 h and the Tmax (clinical; male, 200 mg) was 1 h. It also gave an AUC(0-t) (clinical; male, 200 mg) of 7640 ng·h/mL, a Cmax (clinical; male, 200 mg) of 1580 ng/mL and a Tmax (clinical; male, 300 mg) of 3 h. The Cmax (clinical; male, 300 mg) was 3100 ng/mL, the Tmax (clinical; male, 400 mg) was 2.97 h and the Cmax (clinical; male, 400 mg) was 4700 ng/mL. The Serum testosterone (serum testosterone; Cycle 1 Day 8, 200 mg BID (N = 3), screening 0.153 (0.0611)) was 0.050 (0.0000) ng/mL, the Serum testosterone (serum testosterone; Cycle 1 Day 8, 300 mg BID (N = 3), screening 0.123 (0.0702)) was 0.030 (0.0000) ng/mL and the Serum testosterone (serum testosterone; Cycle 1 Day 8, 300 mg BID + prednisolone (N = 3), screening 0.127 (0.0473)) was 0.030 (0.0000) ng/mL. The Serum testosterone (serum testosterone; Cycle 1 Day 8, 400 mg BID (N = 3), screening 0.057 (0.0115)) was 0.050 (0.0000) ng/mL, the Serum testosterone (serum testosterone; Cycle 1 Day 8, 400 mg BID + prednisolone (N = 3), screening 0.053 (0.0058)) was 0.043 (0.0115) ng/mL and the Serum testosterone (serum testosterone; Cycle 2 Day 1, 200 mg BID (N = 3), screening 0.153 (0.0611)) was 0.050 (0.0000) ng/mL. For the same compound, the Serum testosterone (serum testosterone; Cycle 2 Day 1, 300 mg BID (N = 3), screening 0.123 (0.0702)) was 0.030 (0.0000) ng/mL, the Serum testosterone (serum testosterone; Cycle 2 Day 1, 300 mg BID + prednisolone (N = 3), screening 0.127 (0.0473)) was 0.030 (0.0000) ng/mL and the Serum testosterone (serum testosterone; Cycle 2 Day 1, 400 mg BID (N = 3), screening 0.057 (0.0115)) was 0.050 (0.0000) ng/mL. The Serum testosterone (serum testosterone; Cycle 2 Day 1, 400 mg BID + prednisolone (N = 3), screening 0.053 (0.0058)) was 0.037 (0.0115) ng/mL, the “Suppression of serum testosterone” value (serum testosterone; by 1 week after initiation (Day 8), across all cohorts) was “rapidly suppressed below the lower limit of quantification; also recorded: rapidly suppressed to the LLOQ or lower” and the “Objective response rate (CR + PR)” value ([4]; General Rule for Clinical and Pathological Studies on Prostate Cancer, 5/15 patients) was 33%. For the same compound, the “Best response of complete response (CR)” value [4, 6] was “no patient had a best response of complete response (CR)”, the “Patients with best response of partial response (PR)” value [4, 6] was “five” and the “Best response by modified RECIST version 1.0” value ([4]; only six patients had measurable disease) was “No patient had a best response of CR or PR”. The Deaths ([5]; during the study, 15 patients) was “No deaths were reported”, the “Number of SAEs considered related to the study treatment” value ([5]; in vivo) was “nine” and the “Patients with acute pancreatitis (Grades 2 and 3) or pancreatitis (Grade 1)” value ([5]; in vivo) was “three”. For the same compound, the “Patients with pancreatic-related AEs” value ([5]; in vivo) was “ten”, the “Serious AEs (SAEs) in Cycle 1” value ([5]; in vivo) was “Neither DLTs nor serious AEs (SAEs) were reported” and the “TEAEs associated with adrenal insufficiency” value ([5]; in vivo) was “No TEAE associated with adrenal insufficiency was reported”. The “Treatment-related SAEs in the 200- and 300-mg BID cohorts” value ([5]; in vivo) was “No treatment-related SAE was observed”, the “12-lead ECG and echocardiography findings” value ([5]; male, human, in vivo) was “No clinically significant abnormal 12-lead ECG and echocardiography findings were observed” and the “Abnormalities in hematologic test or urinalysis” value ([5]; male, human, in vivo) was “No Grade 3 or higher abnormalities were observed”. For the same compound, the “Incidence of constipation (AE)” value ([5]; male, human, in vivo) was 33%, the “Incidence of hyperamylasemia (AE)” value ([5]; male, human, in vivo) was 40% and the “Incidence of hyperlipasemia (AE)” value ([5]; male, human, in vivo) was 47%. For the same compound, the “Mineralocorticoid-related TEAE: hypertension” value ([5]; male, human, in vivo) was 4 n, the “Mineralocorticoid-related TEAE: hypokalemia” value ([5]; male, human, in vivo) was 3 n and the “Patients who experienced SAEs” value ([5]; male, human, in vivo) was 60%. For the same compound, the “Patients with at least 1 TEAE” value ([5]; male, human, in vivo) was 100%, the “Patients with at least 1 treatment-related AE” value ([5]; male, human, in vivo) was 93% and the “TEAE subject incidence: Abdominal pain upper” value ([5]; male, human, in vivo) was 2 (13) n (%). The “TEAE subject incidence: Blood creatine phosphokinase increased” value ([5]; male, human, in vivo) was 2 (13) n (%), the “TEAE subject incidence: Constipation” value ([5]; male, human, in vivo) was 5 (33) n (%) and the “TEAE subject incidence: Contusion” value ([5]; male, human, in vivo) was 2 (13) n (%). The “TEAE subject incidence: Dysgeusia” value ([5]; male, human, in vivo) was 4 (27) n (%), the “TEAE subject incidence: Fall” value ([5]; male, human, in vivo) was 2 (13) n (%) and the “TEAE subject incidence: Hepatic function abnormal” value ([5]; male, human, in vivo) was 4 (27) n (%). The “TEAE subject incidence: Insomnia” value ([5]; male, human, in vivo) was 2 (13) n (%), the “TEAE subject incidence: Malaise” value ([5]; male, human, in vivo) was 4 (27) n (%) and the “TEAE subject incidence: Nasopharyngitis” value ([5]; male, human, in vivo) was 3 (20) n (%). The “TEAE subject incidence: Nausea” value ([5]; male, human, in vivo) was 3 (20) n (%), the “TEAE subject incidence: Rash” value ([5]; male, human, in vivo) was 3 (20) n (%) and the “TEAE subject incidence: Vomiting” value ([5]; male, human, in vivo) was 2 (13) n (%). The “Total number of SAEs” value ([5]; male, human, in vivo) was 14 SAEs.
